Reference: ChEMBL document CHEMBL1133790, “Heteroaryl and cycloalkyl sulfonamide hydroxamic acid inhibitors of matrix metalloproteinases” (Bioorg Med Chem Lett, 2001)
Calls of active or inactive are those of the source. The rule behind the calls is not given here.

How the values were obtained:
Collagenase 3 [1] = biological target: T1, Collagenase 3 (Homo sapiens, UniProt P45452); assay: Inhibition of Matrix metalloprotease-13
[2] = biological target: T2, Matrix metalloproteinase-9 (Homo sapiens, UniProt P14780); assay: Inhibition of Matrix metalloprotease-9
Interstitial collagenase = biological target: T3, Interstitial collagenase (Homo sapiens, UniProt P03956); assay: Inhibition of Matrix metalloprotease-1
T3 sequence (P03956 whole entry): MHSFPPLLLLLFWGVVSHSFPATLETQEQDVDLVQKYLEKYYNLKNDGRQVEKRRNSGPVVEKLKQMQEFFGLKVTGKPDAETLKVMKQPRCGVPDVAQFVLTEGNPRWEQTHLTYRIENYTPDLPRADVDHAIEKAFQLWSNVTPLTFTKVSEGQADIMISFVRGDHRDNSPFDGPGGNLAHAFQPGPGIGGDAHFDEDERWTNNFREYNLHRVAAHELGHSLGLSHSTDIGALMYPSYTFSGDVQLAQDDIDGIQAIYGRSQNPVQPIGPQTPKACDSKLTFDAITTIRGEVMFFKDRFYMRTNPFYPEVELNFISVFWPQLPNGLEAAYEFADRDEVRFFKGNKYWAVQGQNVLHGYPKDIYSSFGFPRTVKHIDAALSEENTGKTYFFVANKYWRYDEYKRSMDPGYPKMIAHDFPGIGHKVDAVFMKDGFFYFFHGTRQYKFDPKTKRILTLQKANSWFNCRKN

[3] = biological target: T2, Matrix metalloproteinase-9; assay: Inhibition of Matrix metalloprotease-9 at 0.3 uM
Collagenase 3 [4] = biological target: T1, Collagenase 3; assay: Inhibition of Matrix metalloprotease-13 at 0.3 uM
[5] = biological target: T4, Interstitial collagenase (Homo sapiens) (UniProt P03956); assay: Inhibition of Matrix metalloprotease-1 at 1 uM
T4 sequence (whole entry): T3 sequence (P03956 whole entry)

Rattus norvegicus [6] = assay: In vivo inhibitory activity against Matrix metalloprotease-13 in rat dialysis implant bioactivity model at a concentration of 50 mg/kg; Not active; type: functional, organism-based; parameters: dose 50 mg/kg
[7] = biological target: T2, Matrix metalloproteinase-9; assay: Inhibition of Matrix metalloprotease-9 at 10 uM
Rattus norvegicus [8] = assay: Inhibitory activity against MMP-9 in rat dialysis implant bioactivity model at oral dose of 100 mg/kg; In active; type: functional, organism-based; parameters: dose 100 mg/kg

T2 sequence (P14780 whole entry): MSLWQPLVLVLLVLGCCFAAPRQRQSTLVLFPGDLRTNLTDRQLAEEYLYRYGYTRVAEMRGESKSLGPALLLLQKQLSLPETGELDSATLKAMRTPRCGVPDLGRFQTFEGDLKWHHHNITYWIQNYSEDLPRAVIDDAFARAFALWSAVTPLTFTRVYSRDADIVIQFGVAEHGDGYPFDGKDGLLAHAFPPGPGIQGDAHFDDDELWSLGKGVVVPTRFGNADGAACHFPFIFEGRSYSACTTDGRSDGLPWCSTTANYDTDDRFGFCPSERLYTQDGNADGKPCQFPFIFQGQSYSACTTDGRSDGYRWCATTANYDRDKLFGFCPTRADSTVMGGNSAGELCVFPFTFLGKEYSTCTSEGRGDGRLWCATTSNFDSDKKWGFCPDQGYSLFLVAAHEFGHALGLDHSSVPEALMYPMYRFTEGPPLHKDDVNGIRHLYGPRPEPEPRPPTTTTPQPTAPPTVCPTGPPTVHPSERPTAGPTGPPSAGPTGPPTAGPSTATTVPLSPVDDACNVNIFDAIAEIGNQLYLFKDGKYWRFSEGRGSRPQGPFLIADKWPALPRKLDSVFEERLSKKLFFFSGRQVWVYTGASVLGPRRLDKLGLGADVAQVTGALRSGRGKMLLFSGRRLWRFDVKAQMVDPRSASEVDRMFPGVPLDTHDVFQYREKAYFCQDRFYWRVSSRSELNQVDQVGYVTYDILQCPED

COc1ccc(S(=O)(=O)N(Cc2ccccc2)c2c(C(=O)NO)csc2Br)cc1
IC50 (Collagenase 3 [1]): 427 nM

COc1ccc(S(=O)(=O)N(Cc2ccccc2)[C@H]2CCCC[C@H]2C(=O)NO)cc1
IC50 [2]: 318 nM | IC50 (Interstitial collagenase): 361 nM

C#Cc1scc(C(=O)NO)c1N(Cc1ccccc1)S(=O)(=O)c1ccc(OC)cc1
inhibition [3]: 38% | inhibition (Collagenase 3 [4]): 35% | inhibition [5]: 49%

COc1ccc(S(=O)(=O)N(Cc2ccccc2)c2c(C(=O)NO)cc(OC)nc2OC)cc1
Activity (Rattus norvegicus [6]): inactive

COc1ccc(S(=O)(=O)N(Cc2ccccc2)c2c(C(=O)NO)cnn2C)cc1
IC50 [2]: 900 nM | inhibition [5]: 22%

COc1ccc(S(=O)(=O)N(Cc2ccccc2)c2ccsc2C(=O)NO)cc1
inhibition [7]: 57% | inhibition [5]: 19%

COc1ccc(S(=O)(=O)N(Cc2cccnc2)c2c(C(=O)NO)csc2Br)cc1
inhibition [5]: 50% | Activity (Rattus norvegicus [8]): inactive

COc1ccc(S(=O)(=O)N(Cc2ccccc2)C2CCCC[C@H]2C(=O)NO)cc1 (some centres not stated)
IC50 [2]: 181 nM | IC50 (Interstitial collagenase): 174 nM

COc1ccc(S(=O)(=O)N(Cc2ccccc2)c2cscc2C(=O)NO)cc1
inhibition [7]: 67% | inhibition [5]: 40%
